The subject of assay [1] is HCC827 subcutaneous xenograft. Particulars: s.c. HCC827 tumours, n=5/group, Erlotinib 25 mg/kg po QD. How it is done: (§1) Tumour measurements and body weights were taken 3 times weekly and treatment initiated when the tumours reached a mean volume of ˜200 mm^3 (n=5 per group).
(§2) Mice were anaesthetised and transported to the SARRP where CBCT (cone beam computed tomography) images were acquired. Using the MuriSlice software the isocenter of the tumour was identified and aligned with the central axis of the beam. […] A tolerability was performed initially to evaluate 3 Gy/day×5 days for 2 week.

Assay [2] concerns HCC827-ER1 subcutaneous xenograft. The following applies: s.c. HCC827-ER1 tumors, n=5/group. How it is done:
as §1, §2

“Also recorded” adds a separate entry of the source.

On to `C[C@@H](Oc1cc(-c2cnn(C3CCNCC3)c2)cnc1N)c1c(Cl)ccc(F)c1Cl` [Crizotinib, 3-[(1R)-1-(2,6-dichloro-3-fluorophenyl)ethoxy]-5-(1-piperidin-4-ylpyrazol-4-yl)pyridin-2-amine], for which the “effect on tumor volume, drug alone” value in assay [1] is “no effect”. For the same compound, the “tumor growth inhibition compared with vehicle/control” value in assay [2] (drug alone, p<0.001, Erlotinib 25 mg/kg po QD) is roughly 60%. In assay [2], the “tumor regression, drug combined with irradiation” value is “tumour regression was restored; also recorded: tumor regression was restored”.

For `C#Cc1cccc(Nc2ncnc3cc(OCCOC)c(OCCOC)cc23)c1` [Erlotinib, N-(3-ethynylphenyl)-6,7-bis(2-methoxyethoxy) quinazolin-4-amine], the “tumor regression, drug alone” value in assay [2] (drug alone) was “no tumour regression; also recorded: no tumor regression”. Besides, the “tumor regression, drug combined with irradiation” value in assay [2] is on record as “tumour regression was restored; also recorded: tumor regression was restored”.
